The values below are quoted from earlier work in US20230210738A1, “Low-Skin Irritating Deodorant Composition And A Method For Preparing Thereof” (Sislan (Zhuhai) Pharmaceutical Technology Co. Ltd., priority 2021, published 2023).

One data set has as its system bacteria. The conditions noted are these: hexamine prepared in basic condition.
The conditions of data set [1]: hexamine as weak base.

For `C1N2CN3CN1CN(C2)C3` [hexamine, hexamethylenetetramine], the antibacterial effect result with bacteria was “capable of demonstrating an antibacterial effect”. The “neutralization of odoriferous, volatile organic acids” value in data set [1] is “able to neutralize a number of odoriferous, volatile organic acids”.
